In the experiment the test system is spontaneously hypertensive rats. As to the kind of experiment: Determination of antihypertensive activity (blood pressure and heart rate) in anesthetized spontaneously hypertensive rats. In kind it is in vivo. The conditions noted are these: 10 mg./kg. i.p. in aqueous solution, anesthetized spontaneously hypertensive male rats, average of two or more experiments; for change in vivo at 10 mg/kg: Rattus norvegicus, ip. The procedure:
Spontaneously hypertensive male rats were anesthetized with methoxyflurane and α-chloralose (120 mg./kg., i.v.). An aqueous solution of the compound of formula I to be tested was administered i.p. to the animal following a 15-20 minute equilibrium period. Systemic arterial blood pressure was measured from the right carotid artery via a Statham P23 ID pressure transducer and recorded on a Model R411 Beckman Dynograph recorder. Heart rate was recorded with a Beckman 9857B cardiotachometer triggered by the pulse pressure. Mean arterial pressure was calculated as the diastolic pressure plus one third of the pulse pressure. Antihypertensive responses were measured at the maximal reduction in blood pressure occurring within 30 minutes after drug administration as compared to the baseline measurements taken prior to administration of the compound. The effect on heart rate was determined at the same time the maximum reduction in blood pressure was seen and was also compared with the baseline heart rate prior to compound administration. The results in Table I are reported as the maximal reduction in blood pressure and the corresponding effect on heart rate for certain compounds of formula I. The results are the average of two or more experiments.

Where [1] appears, read: heart rate at the time of maximum reduction in blood pressure vs pre-treatment baseline, minus = decrease.
Where [2] appears, read: maximal reduction in mean arterial blood pressure within 30 minutes of compound administration vs pre-treatment baseline, minus = reduction.
Setting [3] is: heart rate at the time of maximum reduction in blood pressure vs pre-treatment baseline, minus = decrease, read-out: Effect on heart rate.
The mark [4] stands for this setting: maximal reduction in mean arterial blood pressure within 30 minutes of compound administration vs pre-treatment baseline, minus = reduction, read-out: Effect on blood pressure.

Where a name gives a salt, the structure may show the parent alone. Read-outs that look alike come from different tables or passages of the source.

As for `COc1cc2c(cc1OC)CC(NC1CC1)=NC=C2.Cl` [Example 12, 2-Cyclopropylamino-7,8-dimethoxy-lH-3-benzazepine hydrochloride], the “Effect on heart rate” value under setting [1] is -8.0%. Moreover, the “Effect on blood pressure” value under setting [2] is on record as -25.0%.
As to `NC1=NC=Cc2cc3c(cc2C1)CCCC3` [Example 34, 2-Amino-7,8,9,10-tetrahydro-1H-naphth[2,3-d]-azepine hydrochloride], the change in vivo at 10 mg/kg reads like this: under setting [3], -15%; under setting [4], -30%.
On the same counts, the results for `COc1cc2c(cc1C)CC(N)=NC=C2` [Example 8, 2-Amino-7-methoxy-8-methyl-1H-3-benzazepine hydrochloride] are -31% and -54%.
On the same counts, the results for `COc1ccc2c(c1)CC(N)=NC=C2` [Example 4, 2-Amino-8-methoxy-1H-3-benzazepine hydrochloride] are -23.5% and -29.5%.
Regarding `CCOc1cc2c(cc1OC)C=CN=C(N)C2` [Example 37, 2-Amino-8-ethoxy-7-methoxy-lH-3-benzazepine hydrochloride], the change in vivo at 10 mg/kg is -23% under setting [3] and -48% under setting [4].
On the same counts, the results for `CNC1=NC=Cc2ccccc2C1` [Example 16, 2-Methylamino-1H-3-benzazepine] are -9% and -8%.
`CCc1cc2c(cc1CC)CC(N)=NC=C2` [Example 1, 2-Amino-7,8-diethyl-1H-3-benzazepine hydrochloride]: the change in vivo at 10 mg/kg under setting [4] is -24%.
For the molecule `NC1=NC=Cc2ccc3c(c2C1)CCCC3` [Example 35, 2-amino-8,9,10,11-tetra-hydro-lH-naphth[1,2-d]azepine hydrochloride], the change in vivo at 10 mg/kg under setting [3] was -12% and the change in vivo at 10 mg/kg under setting [4] was -33%.
For `CC(C)CNC1=NC=Cc2ccccc2C1` [Example 18, 2-Isobutylamino-lE-3-benzazepine] the same measures were -7% and -17%.
On the same counts, the results for `NC1=NC=Cc2ccc([N+](=O)[O-])cc2C1` [Example 10, 2-Amino-8-nitro-lH-3-benzazepine] are -22% and -55%.
As for `COc1cc2c(cc1O)C=CN=C(N)C2` [Example 28, 2-Amino-7-hydroxy-8-methoxy-1H-3-benzazepine hydrochloride], the change in vivo at 10 mg/kg by setting is: under setting [3], 0%; under setting [4], -11%.
For `CCOc1cc2c(cc1OC)CC(N)=NC=C2` [Example 7, 2-Amino-7-ethoxy-8-methoxy-lH-3-benzazepine hydrochloride] the same measures were -3% and -36%.
Take “2-Amino-7,8-dimethoxy-lH-3-benzazepine [Example 5]”: the “Effect on heart rate” value under setting [1] is reported as -21.0%. Under setting [2], the “Effect on blood pressure” value was -43.0%.
On to “2-Amino-7,8-dimethoxy-lH-3-benzazepine hydrochloride [Example 6]”, for which the “Effect on heart rate” value under setting [1] is listed as -15.0%. Also, the “Effect on blood pressure” value under setting [2] was -56.0%.
With `COc1cc2c(cc1F)CC(N)=NC=C2` [Example 36, 2-Amino-8-fluoro-7-methoxy-1H-3-benzazepine hydrochloride], the change in vivo at 10 mg/kg is -8% under setting [3] and -31% under setting [4].
Consider `C=CCNC1=NC=Cc2ccccc2C1` [Example 20, 2-Allylamino-lE-3-benzazepine], for which the change in vivo at 10 mg/kg reads like this: under setting [3], -15%; under setting [4], -20%.
On to `C1=Cc2ccccc2CC(NC2CC2)=N1` [Example 19, 2-Cyclopropylamino-lH-3-benzazepine], for which the change in vivo at 10 mg/kg by setting is: under setting [3], -8%; under setting [4], -20%.
For `CCNC1=NC=Cc2cc(OC)c(OC)cc2C1` [Example 22, 2-Ethylamino-7,8-dimethoxy-lH-3-benzazepine] the same measures were 2% and -13%.
On the same counts, the results for `NC1=NC=Cc2cc3c(cc2C1)OCO3` [Example 9, 2-Amino-7,8-(methylenedioxy)-lH-3-benzazepine hydrochloride] are -11% and -19%.
For `CCOc1cc2c(cc1OCC)CC(N)=NC=C2` [Example 14, 2-Amino-7,8-diethoxy-lH-3-benzazepine hydrochloride] the same measures were -8% and -18%.
For `Cc1ccc(C)c2c1C=CN=C(N)C2` [Example 26, 2-Amino-6,9-dimethyl-lH-3-benzazepine hydrochloride], the change in vivo at 10 mg/kg under setting [4] was -44%.
For the molecule `NC1=NC=Cc2cc3ccccc3cc2C1` [Example 3, 2-Amino-lH-naphth[2,3-d]azepine], the change in vivo at 10 mg/kg is -20% under setting [3] and -31% under setting [4].
In the case of `CC(C)NC1=NC=Cc2ccccc2C1` [Example 21, 2-Isopropylamino-lH-3-benzazepine], the change in vivo at 10 mg/kg is, setting by setting: under setting [3], -6%; under setting [4], -16%.
On the same counts, the results for `C#CCNC1=NC=Cc2cc(OC)c(OC)cc2C1` [Example 29, 2-Propargylamino-7,8-dimethoxy-lH-3-benzazepine hydrochloride] are -11% and -29%.
On the same counts, the results for `NC1=NC=Cc2cc3c(cc2C1)CCC3` [Example 31, 2-Amino-1,7,8,9-tetrahydroindeno[5,6-d]-azepine hydrochloride] are -16% and -40%.
For `Cc1cc2c(cc1C)CC(N)=NC=C2` [Example 2, 2-Amino-7,8-dimethyl-lH-3-benzazepine hydrochloride] the same measures were -21.7% and -46.7%.
Consider `C=CCNC1=NC=Cc2cc(OC)c(OC)cc2C1` [Example 23, 2-Allylamino-7,8-dimethoxy-lH-3-benzazepine], for which the change in vivo at 10 mg/kg under setting [3] is -5% and the change in vivo at 10 mg/kg under setting [4] was -15%.
For `COc1cc(C)c(OC)c2c1CC(N)=NC=C2` [Example 33, 2-Amino-7-methyl-6,9-dimethoxy-lH-3-benzazepine hydrochloride] the same measures were -43% and -47%.
On the same counts, the results for `COc1ccc(OC)c2c1C=CN=C(N)C2` [Example 32, 2-Amino-6,9-dimethoxy-lH-3-benzazepine hydrochloride] are -13% and -32%.
Regarding `CCOc1cc2c(cc1OC)CC(NC1CC1)=NC=C2` [Example 25, 2-Cyclopropylamino-7-ethoxy-8-methoxy-lH-3-benzazepine hydrochloride], the change in vivo at 10 mg/kg under setting [3] is -6% and the change in vivo at 10 mg/kg under setting [4] was -9%.
On the same counts, the results for `Cc1ccc2c(c1)CC(N)=NC=C2` [Example 24, 2-Amino-8-methyl-lH-3-benzazepine] are -22% and -35%.
Consider `COc1cc2c(cc1O)CC(N)=NC=C2` [Example 27, 2-Amino-7-methoxy-8-hydroxy-lE-3-benzazepine hydrochloride], for which the change in vivo at 10 mg/kg is -12% under setting [3] and -29% under setting [4].
On the same counts, the results for `CNC1=NC=Cc2cc(OC)c(OC)cc2C1` [Example 11, 2-Methylamino-7,8-dimethoxy-lH-3-benzazepine] are -7% and -36%.
On the same counts, the results for `COc1cc2c(cc1OC)C(C)C(N)=NC=C2` (stereo not drawn) [Example 13, 1-Methyl-2-amino-7,8-dimethoxy-1H-3-benzazepine hydrochloride] are -2% and -22%.
On the same counts, the results for `NC1=NC=Cc2ccc3ccccc3c2C1` [Example 30, 2-Amino-1H-naphth[1,2-d]azepine hydrochloride] are -6% and -37%.
With `CCC(C)NC1=NC=Cc2ccccc2C1` (stereo not drawn) [Example 17, 2-Sec-butylamino-lH-3-benzazepine], the change in vivo at 10 mg/kg by setting is: under setting [3], -13%; under setting [4], -22%.
On the same counts, the results for `COc1cc2c(cc1OC)CC(NC(C)C)=NC=C2` [Example 15, 2-Isopropylamino-7,8-dimethoxy-lH-3-benzazepine hydrochloride] are -3% and -10%.
